Measurements: patent publication US10655099B2, “Animal protein-free media for cultivation of cells” (Baxalta Incorporated, priority 2004, dated 2020)

Tests used:
GD8/6 cells = details: 0-18 mg/L (as HCl salt) in BAV-medium with 0.25% soy hydrolysate vs unsupplemented 0.25% or 0.4% soy hydrolysate
Procedure: Small scale experiments with GD8/6 cells in suspension culture were carried in Techne spinner flasks at 200 ml working volume in batch refeed mode at 37° C., without pH and pO2 control.
The activity of Factor VIII (FVIII) (cf. FIGS. 1 to 5 and 9) was measured by a chromogenic assay (Chromogenic, Sweden).
The cell specific productivity is defined as the specific amount of produced protein (U or μg) per number of cells per day (cf. FIGS. 7 and 9) or as the specific amount of produced protein (U) produced per amount of D-glucose consumed by the cells (cf. FIG. 8).

[1] = tested on: GD8/6 cells (CHO-cells stably expressing Factor VIII); experiment: Volumetric FVIII productivity of GD8/6 cells in chemostat culture (chromogenic FVIII assay); assay type: cell-based
Procedure: (§1) Cell cultures of recombinant mammalian cells (e.g. CHO-cells stably expressing Factor VIII=GD8/6-cells) were grown in suspension in a chemostat culture in 10 l bioreactors. The culture conditions of 37° C., oxygen saturation 20% and pH 7.0 to 7.1 were kept constant. The cultures were supplied with a constant feed of BAV-medium as defined in Example 1 additionally supplemented with soy hydrolysates in the range of […] and/or addition of putrescine.2HCl in the range of 0-1 mg/L (cf. FIG. 1-5).
The volumetric productivity is calculated from the amount of activity units or antigen titers yielded per liter reactor volume per day (U/L/d or mg/L/d) in the respective production systems.

[2] = tested on: GD8/6 cells (CHO-cells stably expressing Factor VIII)
Procedure: as §1
Cell counts from suspension cells or immobilized cells were determined either by counting with a CASY® cell counter as described by Schärfe et al., (Biotechnologie in LaborPraxis 10: 1096-1103 (1988)) or by citric acid extraction and fluorescent staining of the nuclei followed by counting with a NucleoCounter® (Chemometec, DK). The specific growth rate (μ) is calculated from the increase of the cell densities (X1) and/or the dilution rate (D) of the steady state of chemostat cultures of suspensions cells over a certain time interval (t): μ=D+In (Xt I X0)/t

Recombinant BHK cells = details: 0.25% (w/v) soy hydrolysate + 1.8 mg/L putrescine.2HCl vs 0.25% soy peptone alone; 3 days; EPO activity per glucose consumption
Procedure: Recombinant BHK cells were grown to confluence in 5% (v/v) fetal calf serum containing medium. The cells were washed with protein-free medium and incubated for 3 days in BAV medium supplemented with 0.25% (w/v) soy hydrolysate or 0.25% (w/v) soy hydrolysate+1.8 mg/L putrescine.2HCl (FIG. 8).

[3] = 0.25% (w/v) soy hydrolysate + 1 mg/L putrescine.2HCl
[4] = 0.25% (w/v) soy hydrolysate + 1 mg/L putrescine.2HCl vs 0.25% soy hydrolysate alone

## NCCC[C@H](N)C(=O)O [ornithine]
GD8/6 cells
  cell specific productivity (FVIII), change: significant increase

## NCCCCN [putrescine]
[1]; [3]
  variation of volumetric FVIII-productivity between soy hydrolysate lots: only minor variations
[1]; [4]
  volumetric and cell specific FVIII-productivity, change: increases
[1]; addition to BAV-medium with 0.25% (w/v) soy hydrolysate, due to increased cell specific FVIII productivity
  volumetric productivity of FVIII, effect of addition: over proportional increased
[2]; [3]
  variation of specific growth rates between soy hydrolysate lots: only minor variations
[2]; [4]
  specific growth rate, change: increases
Recombinant BHK cells
  increase in EPO productivity: 16%
GD8/6 cells
  cell specific productivity (FVIII), change: significant increase

## NCCCNCCCCNCCCN [spermine]
GD8/6 cells
  cell specific productivity (FVIII), change: significant increase
